According to publication PMC9538944, “In vitro biotransformation assays using fish liver cells: Comparing rainbow trout and carp hepatocytes” (Frontiers in Toxicology, 2022):
Several values for one entry are separate records, joined by “and”; a condition that tells them apart may be missing. Identical values can stand only once. Like-named read-outs stand apart in the source and are kept apart here.

How the values were obtained:
rainbow trout = experiment: In vivo bioconcentration test OECD TG 305, trout; design: species or system Oncorhynchus mykiss
Protocol: (§1) In vivo BCF values for MXC and BaP in carp and trout were determined in bioconcentration tests with both species in accordance to OECD TG 305 ([OECD, 2012]). The studies were approved by the State Agency for Nature, Environment and Consumer Protection (LANUV) North Rhine-Westphalia. The fish were exposed to a single concentration of both test items in a flow-through system for 35 days. No control groups were used. Dosing was performed by a solid-phase desorption system which was integrated in the fresh water supply allowing for a constant delivery of test concentrations to the fish chambers. The procedure of column generated concentrations was described in detail by [Schlechtriem et al. (2017)]. For the present study, two packed columns containing each 500 g Florisil® loaded with 200 mg of either MXC or BaP were used for each fish chamber. The uptake (exposure) phase of the study was followed by a 35 days depuration phase in uncontaminated water. The flow-through rate was maintained at 38.6 L/h for carp and 30.1 L/h for trout throughout the test. […] Additional 2-4 fish were sampled each, at the start and at the end of the exposure period, as well as at the end of the depuration period for lipid analysis. The total lipid content of the fish was measured individually by gravimetric analysis according to [Smedes (1999)].
(§2) Water samples (400 ml) were taken from the test chambers at least three times per week. Preparation for chemical analysis was performed by liquid-liquid extraction using n-hexane (10 ml) containing deuterated MXC (35 ng). The purified organic phase was subdivided into two equal parts and evaporated to dryness under a stream of nitrogen. One part of the residue was dissolved in 200 µL DCM for MXC analysis. The other part was mixed with 1 ml ACN: water (8:2, v/v) and subjected to BaP analysis. Whole fish samples were prepared for chemical analysis individually. After grinding the tissue with the addition of dry ice in a Thermomix™ 31 (Vorwerk), the finely powdered homogenate was lyophilized using an AdVantage freeze dryer (Ismatec). Aliquots of the dry samples (0.5 g) were spiked with deuterated internal standards (5 ng MXC-d6 and 0.2 ng BaP-d12) and extracted three times with acetone: DCM (1:1, v/v) (10 ml). The pooled extracts were then extracted with ultra-pure water (45 ml) and mixed with sodium chloride (5 g) to remove acetone and matrix. The organic phase was concentrated (0.5 ml) and dissolved in cyclohexane: DCM (1:1, v/v) (4.2 ml). This was subjected to gel permeation chromatography (GPC) (GILSON system equipped with pump 307, syringe pump 402, GX-271 liquid handler, 508 interface module, and Trilution® LC software; column i. d. 1.5 cm, material Bio-Beads S-X3, 200–400 mesh, Bio-Rad, flow rate 2 ml/min). Eluates containing MXC (26–31 min retention time) and BaP (32–38 min retention time) were evaporated to dryness and dissolved in hexane (1 ml) and toluol (50 µL), respectively. The collected MXC extracts were further concentrated by solid-phase extraction (SPE, Sep-Pak® Vac 12cc, 2 g, silica cartridges, Waters) using DCM: n-hexane (50:50, v/v) as eluent. Eluent and hexane were used to equilibrate and condition the column before sample loading and subsequent washing with DCM: n-hexane (30:70, v/v). The eluate containing MXC was dried down and reconstituted in toluol (0.5 ml).
(§3) MXC in the organic phase of samples from the in vitro incubations and in DCM extracts of water samples from the in vivo bioconcentration tests were analyzed by gas chromatography-mass spectrometry (GC-MS). The GC-MS system consisted of a HP5890 series II GC coupled to a HP5972 mass sensitive detector (Hewlett-Packard). Separations were performed on 5% phenyl polysilphenylene-siloxane capillary columns (BPX-5, 30 m length x 0.25 mm i. d, 0.25 µm df, SGE). […]

[1] = In vivo bioconcentration test OECD TG 305, trout; design: species or system Oncorhynchus mykiss; settings: rainbow trout (Oncorhynchus mykiss); for concentration at 7 d: day 7 (uptake); for concentration at 40 d: day 40 (depuration)
Protocol: as §1, §2, §3

[2] = rainbow trout (Oncorhynchus mykiss), in vivo
[3] = in vivo, Cf data, concentration measured in individual fish
[4] = in vivo, rainbow trout, read-out: Mean Cf
[5] = in vivo, rainbow trout, day 14 (uptake), read-out: Mean Cf
[6] = in vivo, rainbow trout, day 21 (uptake), read-out: Mean Cf
[7] = in vivo, rainbow trout, day 28 (uptake), read-out: Mean Cf
[8] = in vivo, rainbow trout, day 35 (end of uptake), read-out: Mean Cf
[9] = in vivo, rainbow trout, day 44 (depuration), read-out: Mean Cf
[10] = in vivo, rainbow trout, BaP background corrected, read-out: Cf data, concentration measured in individual fish

Question: Which “Cf,SS concentration in fish at steady-state” value (from here on “Cf,SS concentration in fish”) (rainbow trout; [2]) does the source give for `c1ccc2c(c1)cc1ccc3cccc4ccc2c1c34` [BaP, benzo[a]pyrene] here?
Answer: 0.126 µg/kg

Question: What about the “kB, in vivo estimate Trout” value (rainbow trout; [2]) of the same compound?
Answer: 0.40 day⁻¹

Question: And the “kB, in vivo estimate, range of 95% probability” value (rainbow trout; [2])?
Answer: 0.13 to 1.2 day⁻¹

Question: What about the “kT depuration rate constant” value (rainbow trout; [2]) of the same compound?
Answer: 0.427 day⁻¹

Question: And the “kTG growth corrected depuration rate constant” value (rainbow trout; [2])?
Answer: 0.401 day⁻¹

Question: What about the “BCFSSL lipid-normalized steady-state bioconcentration factor” value (rainbow trout; rainbow trout (Oncorhynchus mykiss), in vivo, 35 d) of the same compound?
Answer: 42.8 L/kg

Question: And the “Cf data, concentration measured in individual fish” value (“Cf data, concentration measured” below) (rainbow trout; rainbow trout (Oncorhynchus mykiss), in vivo, 44 d)?
Answer: 0.002 µg/kg

Question: And the concentration at 14 d [1, 3]?
Answer: 0.079 ng/g

Question: And the concentration at 21 d [1, 3]?
Answer: 0.111 ng/g

Question: What about the concentration at 28 d [1, 3] of the same compound?
Answer: 0.126 ng/g

Question: What about the concentration at 35 d [1, 3] of the same compound?
Answer: 0.084 ng/g

Question: What about the concentration at 44 d [1, 3] of the same compound?
Answer: 0.004 ng/g

Question: What about the concentration at 7 d [1, 4] of the same compound?
Answer: 0.107 ng/g

Question: What about the concentration at 14 d [1, 5] of the same compound?
Answer: 0.07 ng/g

Question: And the concentration at 21 d [1, 6]?
Answer: 0.141 ng/g

Question: What about the concentration at 28 d [1, 7] of the same compound?
Answer: 0.121 ng/g

Question: What about the concentration at 35 d [1, 8] of the same compound?
Answer: 0.116 ng/g

Question: What about the concentration at 40 d [1, 4] of the same compound?
Answer: 0.011 ng/g

Question: And the concentration at 44 d [1, 9]?
Answer: 0.003 ng/g

Question: And the concentration at 21 d ([1]; whole fish, other: exposure via water in a flow-through system, rainbow trout, day 21 (uptake), BaP background corrected, read-out: Cf data, concentration measured in individual fish)?
Answer: 0.107 ng/g

Question: For `COc1ccc(C(c2ccc(OC)cc2)C(Cl)(Cl)Cl)cc1` [MXC, methoxychlor], which BCFSS (rainbow trout; Rainbow trout - high BCFSS) is on record?
Answer: 3854 L/kg

Question: What about the “Cf,SS concentration in fish” value (rainbow trout; Rainbow trout - high BCFSS) of the same compound?
Answer: 44.1 µg/kg

Question: And the “kTG growth corrected depuration rate constant” value (rainbow trout; Rainbow trout - high BCFSS)?
Answer: 0.201 day⁻¹

Question: What about the “kT depuration rate constant” value (rainbow trout; Rainbow trout - high BCFSS (kT-high, day 56-70 values excluded)) of the same compound?
Answer: 0.227 day⁻¹

Question: And the “BCFSSL lipid-normalized steady-state bioconcentration factor” value (rainbow trout; Rainbow trout - high BCFSS, 5% lipid content)?
Answer: 2122 L/kg

Question: What about the “Cf,SS concentration in fish” value (rainbow trout; rainbow trout) of the same compound?
Answer: 30.76 µg/kg

Question: And the “kT depuration rate constant” value (rainbow trout; rainbow trout)?
Answer: 0.150 day⁻¹

Question: What about the “kTG growth corrected depuration rate constant” value (rainbow trout; rainbow trout) of the same compound?
Answer: 0.124 day⁻¹

Question: What about the “BCFSSL lipid-normalized steady-state bioconcentration factor” value (rainbow trout; rainbow trout, 5% lipid content) of the same compound?
Answer: 1479 L/kg

Question: And the “Cf data, concentration measured” value (rainbow trout; rainbow trout, day 7 (uptake), BaP background corrected)?
Answer: 30.0 µg/kg and 18.7 µg/kg and 17.4 µg/kg

Question: What about the “Cf data, concentration measured” value (rainbow trout; rainbow trout, day 14 (uptake), BaP background corrected) of the same compound?
Answer: 18.1 µg/kg and 25.4 µg/kg and 13.7 µg/kg

Question: What about the “Cf data, concentration measured” value (rainbow trout; rainbow trout, day 21 (uptake), BaP background corrected) of the same compound?
Answer: 23.9 µg/kg and 14.5 µg/kg and 19.4 µg/kg

Question: And the “Cf data, concentration measured” value (rainbow trout; rainbow trout, day 28 (uptake), BaP background corrected)?
Answer: 50.1 µg/kg and 34.5 µg/kg and 29.6 µg/kg

Question: What about the “Cf data, concentration measured” value (rainbow trout; rainbow trout, day 35 (end of uptake), BaP background corrected) of the same compound?
Answer: 50.9 µg/kg and 49.5 µg/kg and 23.5 µg/kg and 61.7 µg/kg

Question: And the “Cf data, concentration measured” value (rainbow trout; rainbow trout, day 40 (depuration), BaP background corrected)?
Answer: 15.9 µg/kg and 15.8 µg/kg

Question: And the “Cf data, concentration measured” value (rainbow trout; rainbow trout, day 44 (depuration), BaP background corrected)?
Answer: 2.19 µg/kg and 7.53 µg/kg and 8.23 µg/kg and 6.28 µg/kg

Question: And the “Cf data, concentration measured” value (rainbow trout; rainbow trout, day 56 (depuration), 5.42 identified as outlier and excluded)?
Answer: 5.42 µg/kg and 2.06 µg/kg and 2.23 µg/kg and 0.969 µg/kg

Question: What about the “Cf data, concentration measured” value (rainbow trout; rainbow trout, day 70 (end of depuration)) of the same compound?
Answer: 2.46 µg/kg and 0.320 µg/kg and 0.237 µg/kg

Question: What about the concentration at 7 d [1, 10] of the same compound?
Answer: 25.9 ng/g

Question: What about the concentration at 7 d [1, 4] of the same compound?
Answer: 23 ng/g

Question: And the concentration at 14 d ([1]; in vivo, rainbow trout, day 14 (uptake), BaP background corrected, read-out: Cf data, concentration measured in individual fish)?
Answer: 27.1 ng/g

Question: And the concentration at 14 d [1, 5]?
Answer: 21.1 ng/g

Question: And the concentration at 21 d ([1]; in vivo, rainbow trout, day 21 (uptake), BaP background corrected, read-out: Cf data, concentration measured in individual fish)?
Answer: 28 ng/g

Question: And the concentration at 21 d [1, 6]?
Answer: 21.5 ng/g

Question: And the concentration at 28 d ([1]; in vivo, rainbow trout, day 28 (uptake), BaP background corrected, read-out: Cf data, concentration measured in individual fish)?
Answer: 53.2 ng/g

Question: What about the concentration at 28 d [1, 7] of the same compound?
Answer: 41.9 ng/g

Question: And the concentration at 35 d [1, 8]?
Answer: 46.4 ng/g

Question: And the concentration at 40 d [1, 10]?
Answer: 9.62 ng/g

Question: What about the concentration at 40 d [1, 4] of the same compound?
Answer: 13.8 ng/g

Question: What about the concentration at 44 d [1, 9] of the same compound?
Answer: 6.06 ng/g

Question: And the concentration at 56 d ([1]; in vivo, rainbow trout, day 56 (depuration), outlier excluded, read-out: Mean Cf)?
Answer: 1.75 ng/g

Question: And the concentration at 70 d ([1]; in vivo, rainbow trout, day 70 (end of depuration), read-out: Mean Cf)?
Answer: 1.01 ng/g
